Laboratory results published in patent US7438933B2, “Maternal multi-nutrient against diabetes-related birth defects” (The Board of Trustees of the University of Arkansas System, priority 2004, dated 2008).

Legend:
[1] = tested on: diabetic pregnancies; details: experimental models; reduced from 25%; cited from earlier work
[2] = tested on: embryos of diabetic rats; experiment: Dietary supplementation of pregnant STZ-diabetic and non-diabetic rats; neural tube defects in E12 embryos; type: in vivo, rat; details: supplemented diet from day 1 of pregnancy, embryos at E12
Protocol: To induce diabetes, 8-week-old Sprague-Dawley female rats are injected with 65 mg/kg of streptozotocin via the tail vein. Blood glucose levels are monitored daily (by tail vein puncture using a lancet) using a Prestige Smart blood glucose meter (Home Diagnostics, Fort Lauderdale, Fla.). Once a level of hyperglycemia indicative of diabetes (>250 mg/dl) is achieved, a sustained-release insulin pellet (Linplant, Linshin, Canada) will be inserted subcutaneously.
When glucose levels are restored to normal (80-150 mg/dl) and are stable for at least three continuous days, matings can be set up with male rats of the same strain. Day zero of pregnancy is established by identifying spermatozoa in vaginal smears. At designated developmental stages, insulin pellets are withdrawn to generate hyperglycemia in the pregnant rats. A group of control rats will continuously receive insulin during the course of the experiment. Glucose levels and maternal weight are continuously monitored during the pregnancy. Since it has already been shown that there is no difference in embryonic development between streptozotocin/insulin-treated and non-streptozotocin-treated animals, the streptozotocin/insulin-treated groups are used as an equivalent of non-diabetic control. At the end of the experiment, rats are euthanized and embryos dissected out of the uterus for examination and analysis. At least four pregnant rats are included in each group, from which 40-60 embryos can be obtained for examination. For each type of study, at least three replicate experiments will be carried out.
To investigate the effects of maternal hyperglycemia on embryonic malformations, the investigators employed a rat model that induces diabetes by streptozotocin (STZ). Subcutaneously implanted insulin pellets maintained euglycemia at the time of mating. On day 4 of pregnancy, the insulin pellets were removed, and the developing embryos were exposed to hyperglycemia during organogenesis (days 9-12). To maintain a euglycemic control, insulin pellets were retained in the body during the entire experimental course. On day 12, both sets of rats were euthanized, embryos were dissected out of the uteri for examination, and each embryo's yolk sac was collected for biochemical and molecular analyses.
After removal from the dams, embryos were examined under a dissecting microscope and assessed for morphological malformations in a number of categories to determine the effects of maternal hyperglycemia. […]
At E12, embryos were dissected out of uteri and evaluated for neural tube defects (NTDs), which were used as a measure of malformation rates.

[3] = tested on: yolk sacs; experiment: DNA laddering assay of apoptosis in embryonic yolk sacs after maternal supplementation; type: in vivo, rat; details: embryos of diabetic mothers with supplemented diet, FIG. 7
Protocol: To determine whether hyperglycemia is associated with programmed cell death in embryos, DNA laddering was examined in yolk sacs of embryos with either diabetic or non-diabetic mothers. Yolk sac tissues were collected from embryos, and DNA was extracted using DNeasy Tissue Kit (Qiagen, Valencia, Calif.) and resolved on 0.5% agarose gel. […] To examine whether supplemented diets affected apoptosis in developing embryos of diabetic dams, DNA fragmentation (an indicator of apoptosis) was analyzed using DNA laddering assays.

[4] = tested on: caspase3; experiment: Western blot of phosphorylated caspase3 in yolk sac cells; type: in vivo, rat; details: embryos of diabetic dams with supplementation, FIG. 4A
Text: (§1) Apoptosis is mediated by a program involving a number of factors, including caspase3 and Bax (a member of the Bcl-2 family). Hyperglycemia may stimulate JNK activity, which then activates caspases and leads to apoptosis. Activation of Bax is also a hallmark of ongoing apoptosis. To determine whether caspase and Bax activation are involved in maternal diabetic embryopathy, changes in the levels of phosphorylated caspase3 and Bax in yolk sac cells from embryos with either diabetic or non-diabetic mothers were assessed. Cell lysates were resolved on 12% polyacrylamide gel and blotted on nylon membrane. The blots were probed with antibodies raised against phosphorylated caspase3 or Bax (Santa Cruz Biotechnologies, Santa Cruz, Calif.). Signals were detected using a chemiluminescence detection method and exposed to X-ray film (FIG. 4A). The density of the bands on X-ray film was measured using densitometry (VersaDoc Imaging System, Bio-Rad, Hercules, Calif.) and analyzed with one-dimensional analysis software (Bio-Rad; FIGS. 4B and C). The value of each band was calculated as a percentage of the control, which was set at 100%.

[5] = tested on: Bax; experiment: Western blot of phosphorylated Bax in yolk sac cells; type: in vivo, rat; details: embryos of diabetic dams with supplementation, FIG. 4A
Text: as §1

[6] = tested on: ERK1/2; experiment: Western blot of phosphorylated ERK1/2 in embryonic yolk sac cells; type: in vivo, rat; details: diabetic dams with supplemented diet, changed to the levels of non-diabetic rats, FIG. 8
Protocol: (§2) The active forms of ERK and JNK are phosphorylated, so their activation in yolk sac tissues were assessed by Western blot detection of the corresponding phosphoproteins. The levels of phosphorylated Raf-1 which activates ERKs and Akt which is an antiapototic protein were also assessed by western blot. Yolk sac tissues were isolated, protein was extracted and analyzed using Western blotting with antibodies specific for phosphorylated ERK-1 and -2 (p-ERK1/2), JNK-1 and -2 (p-JNK1/2), RAF-1 and Akt (FIG. 6A). […] Levels of phosphorylated ERK1/2, JNK1/2, Raf-1 and Akt in embryonic yolk sac cells were evaluated using Western blot assays.

[7] = tested on: JNK1/2; experiment: Western blot of phosphorylated JNK1/2 in embryonic yolk sac cells; type: in vivo, rat; details: diabetic dams with supplemented diet, changed to the levels of non-diabetic rats, FIG. 8
Protocol: as §2

Compound	malformation rate in diabetic pregnancies [1] [%]	NTDs (%) ([2]; diabetic rats)	NTDs (%) ([2]; non-diabetic rats)	DNA fragmentation (DNA laddering) in yolk sacs [3]	phosphorylated caspase3 level in yolk sacs [4]	phosphorylated Bax level in yolk sacs [5]	level of activated ERKs (p-ERK1/2) in embryonic yolk sacs [6]	level of activated JNKs (p-JNK1/2) in embryonic yolk sacs [7]
O=C(O)CCCC[C@@H]1CCSS1 (racemic) [lipoic acid]	10	–	–	–	–	–	–	–
CCCCC/C=C\C/C=C\C/C=C\C/C=C\CCCC(=O)O [arachidonic acid]	–	7.6	4.1	DNA fragmentation was eliminated	reversal of increased caspase3 and Bax levels	reversal of increased caspase3 and Bax levels	altered embryo levels of activated ERKs and JNKs	altered embryo levels of activated ERKs and JNKs
Cc1c(C)c2c(c(C)c1O)CC[C@@](C)(CCC[C@H](C)CCC[C@H](C)CCCC(C)C)O2 [vitamin E, α-tocopherol]	–	6.9	5.0	DNA fragmentation was eliminated	reversal of increased caspase3 and Bax levels	reversal of increased caspase3 and Bax levels	altered embryo levels of activated ERKs and JNKs	altered embryo levels of activated ERKs and JNKs
